Data: the supplement of paper PMC9663587

Experiments:
Pictilisib/GDC0941 = compound: CS(=O)(=O)N1CCN(Cc2cc3nc(-c4cccc5[nH]ncc45)nc(N4CCOCC4)c3s2)CC1 [Pictilisib/GDC0941]
Saracatinib/AZD0530 = compound: CN1CCN(CCOc2cc(OC3CCOCC3)c3c(Nc4c(Cl)ccc5c4OCO5)ncnc3c2)CC1 [Saracatinib/AZD0530]
Dasatinib = compound: Cc1nc(Nc2ncc(C(=O)Nc3c(C)cccc3Cl)s2)cc(N2CCN(CCO)CC2)n1 [Dasatinib]
Ceritinib/LDK378 = compound: Cc1cc(Nc2ncc(Cl)c(Nc3ccccc3S(=O)(=O)C(C)C)n2)c(OC(C)C)cc1C1CCNCC1 [Ceritinib/LDK378]
THZ1 = compound: CN(C)C/C=C/C(=O)Nc1ccc(C(=O)Nc2cccc(Nc3ncc(Cl)c(-c4c[nH]c5ccccc45)n3)c2)cc1 [THZ1]
AZD7762 = compound: NC(=O)Nc1cc(-c2cccc(F)c2)sc1C(=O)N[C@H]1CCCNC1 [AZD7762]
[1] = compound: CNc1nc(-c2ccc3c(N)n[nH]c3c2)cc(N2C[C@@H](C(=O)NC3CCCCC3)CC[C@H]2C)n1
SHP099 = compound: CC1(CCN(CC1)C2=CN=C(C(=N2)N)C3=C(C(=CC=C3)Cl)Cl)N [SHP099]
Neratinib/HKI272 = compound: CCOc1cc2ncc(C#N)c(Nc3ccc(OCc4ccccn4)c(Cl)c3)c2cc1NC(=O)/C=C/CN(C)C [Neratinib/HKI272]
LEE011/Ribociclib = compound: CN(C)C(=O)c1cc2cnc(Nc3ccc(N4CCNCC4)cn3)nc2n1C1CCCC1 [LEE011/Ribociclib]
Cabozantinib = compound: COc1cc2nccc(Oc3ccc(NC(=O)C4(C(=O)Nc5ccc(F)cc5)CC4)cc3)c2cc1OC [Cabozantinib]
AZD1775 = compound: C=CCn1c(=O)c2cnc(Nc3ccc(N4CCN(C)CC4)cc3)nc2n1-c1cccc(C(C)(C)O)n1 [AZD1775]
Tivantinib/ARQ197 = compound: O=C1NC(=O)[C@@H](c2cn3c4c(cccc24)CCC3)[C@@H]1c1c[nH]c2ccccc12 [Tivantinib/ARQ197]
THZ-P1-2 = compound: CN(C)C/C=C/C(=O)NC1=CC=C(C=C1)C(=O)NC2=CC=CC(=C2)NC3=NC=NC(=C3)C4=CNC5=CC=CC=C54 [THZ-P1-2]
Cediranib/AZD2171 = compound: COc1cc2c(Oc3ccc4[nH]c(C)cc4c3F)ncnc2cc1OCCCN1CCCC1 [Cediranib/AZD2171]
[2] = compound: CC(=O)c1c(C)c2cnc(Nc3ccc(N4CCNCC4)cn3)nc2n(C2CCCC2)c1=O
[3] = compound: Cc1nn(C)c(COc2ccc(N3CCN(S(=O)(=O)N(C)C)CC3)cc2)c1-c1cccc2c(CCCOc3cccc4ccccc34)c(C(=O)O)n(CCN3CCOCC3)c12
[4] = compound: CCCCOc1c(C(=O)c2c(F)cc(C)cc2F)c[nH]c2nncc1-2
Alpelisib/BYL719 = compound: Cc1nc(NC(=O)N2CCC[C@H]2C(N)=O)sc1-c1ccnc(C(C)(C)C(F)(F)F)c1 [Alpelisib/BYL719]
INK128/MLN0128 = compound: CC(C)n1nc(-c2ccc3oc(N)nc3c2)c2c(N)ncnc21 [INK128/MLN0128]
[5] = compound: COc1ccc2c(c1)[C@]1(C[C@H]1c1ccc3c(/C=C/c4ccc(CN5C[C@@H](C)O[C@@H](C)C5)cc4)n[nH]c3c1)C(=O)N2
AZD2014 = compound: CNC(=O)c1cccc(-c2ccc3c(N4CCOC[C@@H]4C)nc(N4CCOC[C@@H]4C)nc3n2)c1 [AZD2014]
Buparlisib/NVP-BKM120 = compound: Nc1cc(C(F)(F)F)c(-c2cc(N3CCOCC3)nc(N3CCOCC3)n2)cn1 [Buparlisib/NVP-BKM120]
R0-3306 = compound: C1=CC2=C(C=CC(=C2)C=C3C(=O)NC(=NCC4=CC=CS4)S3)N=C1 [R0-3306]
BVD523 = compound: CC(C)Nc1cc(-c2c[nH]c(C(=O)N[C@H](CO)c3cccc(Cl)c3)c2)c(Cl)cn1 [BVD523]
Volasertib/BI6727 = compound: CC[C@@H]1C(=O)N(C)c2cnc(Nc3ccc(C(=O)N[C@H]4CC[C@H](N5CCN(CC6CC6)CC5)CC4)cc3OC)nc2N1C(C)C [Volasertib/BI6727]
AZD5363 = compound: NC1(C(=O)N[C@@H](CCO)c2ccc(Cl)cc2)CCN(c2nc[nH]c3nccc2-3)CC1 [AZD5363]
BSJ-03-123 = compound: CC(=O)c1c(C)c2cnc(Nc3ccc(N4CCN(CCOCCOCCOCCNC(=O)COc5cccc6c5C(=O)N(C5CCC(=O)NC5=O)C6=O)CC4)cn3)nc2n(C2CCCC2)c1=O [BSJ-03-123]
Vorinostat = compound: O=C(CCCCCCC(=O)Nc1ccccc1)NO [Vorinostat]
Rucaparib = compound: CNCc1ccc(-c2[nH]c3cc(F)cc4c3c2CCNC4=O)cc1 [Rucaparib]
[6] = compound: CCc1cnn2c(NCc3ccc[n+]([O-])c3)cc(N3CCCC[C@H]3CCO)nc12
[7] = compound: CO[C@@H](C)Cn1c(=O)n(C)c2cnc3ccc(-c4cncc(C(C)(C)O)c4)cc3c21
[8] = compound: CCC1=CN=CN=C1N2CCN(CC2)CC3=NC4=C(N3)C=C(C=C4)C(F)(F)F
Torin2 = compound: C1=CC(=CC(=C1)N2C(=O)C=CC3=CN=C4C=CC(=CC4=C32)C5=CN=C(C=C5)N)C(F)(F)F [Torin2]
senexin b = compound: CN1CCN(C(=O)c2ccc3cc(CCNc4ncnc5ccc(C#N)cc45)ccc3c2)CC1 [senexin b]
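Note: breast cancer and non-malignant breast epithelial cell lines, Deep Dye Drop or Dye Drop imaging, nine half-log doses, GR normalized to time-zero plates and DMSO-only controls.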

Cell Line | GR50, 72 h (Pictilisib/GDC0941) [µM] | GR50, 72 h (Saracatinib/AZD0530) [µM] | GR50, 72 h (Dasatinib) [µM] | GR50, 72 h (Ceritinib/LDK378) [µM] | GR50, 72 h (THZ1) [µM] | GR50, 72 h (AZD7762) [µM] | GR50, 72 h [1] [µM] | GR50, 72 h (SHP099) [µM] | GR50, 72 h (Neratinib/HKI272) [µM] | GR50, 72 h (LEE011/Ribociclib) [µM] | GR50, 72 h (Cabozantinib) [µM] | GR50, 72 h (AZD1775) [µM] | GR50, 72 h (Tivantinib/ARQ197) [µM] | GR50, 72 h (THZ-P1-2) [µM] | GR50, 72 h (Cediranib/AZD2171) [µM] | GR50, 72 h [2] [µM] | GR50, 72 h [3] [µM] | GR50, 72 h [4] [µM] | GR50, 72 h (Alpelisib/BYL719) [µM] | GR50, 72 h (INK128/MLN0128) [µM] | GR50, 72 h [5] [µM] | GR50, 72 h (AZD2014) [µM] | GR50, 72 h (Buparlisib/NVP-BKM120) [µM] | GR50, 72 h (R0-3306) [µM] | GR50, 72 h (BVD523) [µM] | GR50, 72 h (Volasertib/BI6727) [µM] | GR50, 72 h (AZD5363) [µM] | GR50, 72 h (BSJ-03-123) [µM] | GR50, 72 h (Vorinostat) [µM] | GR50, 72 h (Rucaparib) [µM] | GR50, 72 h [6] [µM] | GR50, 72 h [7] [µM] | GR50, 72 h [8] [µM] | GR50, 72 h (Torin2) [µM] | GR50, 72 h (senexin b) [µM]
HCC1954 | 0.944 | 2.12 | 1.86 | 2.33 | 0.0995 | 0.127 | > 10 | > 10 | 0.0672 | > 10 | > 10 | 1.58 | 0.167 | 5.9 | 4.08 | > 3.16 | > 10 | < 0.001 | 1.23 | 0.0142 | 0.00444 | 0.0484 | 0.523 | 6.63 | 2.94 | 0.00659 | 3.06 | 1.07 | 1.43 | > 10 | 0.0126 | < 0.001 | > 10 | 0.0097 | 
SUM185PE | 0.127 | 1.65 | 0.0196 | 0.983 | 0.0143 | 0.0985 | > 10 | > 10 | 0.537 | > 10 | 1.71 | 4.52 | 0.784 | 5.83 | 0.0358 | > 3.16 | > 10 | > 10 | 0.318 | 0.00558 |  | 0.00637 | 0.659 | > 10 | > 10 | 0.0238 | 8.7 | > 10 | 6.86 | > 10 | 0.0261 | 0.00357 | 3.03 | 0.0124 | 
HCC1428 | 5.87 | > 10 | > 10 | 1.24 |  | 0.4 |  |  | 1.43 |  | > 10 |  | 0.252 |  | 3.17 | 0.073 | > 10 |  | > 10 | 0.00593 |  |  | 0.692 |  |  | 0.0187 |  |  | 0.835 |  | 0.0171 |  | > 10 | 0.0128 | 
SUM1315 | 0.511 | 1.39 | 0.0191 | 0.669 | 0.251 | 0.0527 | 3.85 | > 10 | 0.0922 | 2.83 | 4.52 | < 0.001 | 0.37 | 7.11 | 1.47 | 0.0923 | > 10 | 0.00376 | 6.46 | 0.00659 | 0.00184 | 0.0012 | 0.402 | 2.79 | 6 | 0.0095 | > 10 | 2.05 | 1.76 |  | 0.0109 | 0.00919 | > 10 | 0.015 | > 10
